# Data taken from patent US9802884B2, “Mixtures of MGDA enantiomers, and process for making such mixtures” (BASF SE, priority 2013, dated 2017).
# Where two headings read alike, the source gives them in different places.
# Key:
# [1] = minimum temperature for forming a kinetically stable 50% by weight solution, cooled 30° C./h to precipitation, reheated 1° C./h until clear, higher Tsol = lower solubility
# Protocol: In each case, the solubility was calculated to refer to pure MGDA, without hydrate water. The solubility of inventive mixtures and of comparison experiments was determined with an apparatus that allowed heating and cooling down liquid solutions. […] Then, the slurry of crystals of MGDA so obtained was again heated at a speed of 1° C./h until a clear solution was obtained. The slurry/solution was checked for solid particles by visible light scattering detection. […] A higher temperature Tsol correlates with a lower solubility at ambient temperature.
# [2] = ambient temperature
# Protocol: The following tolerance tests were performed: 25 g of a 40% by weight aqueous solution of the respective inventive mixture (or of racemic MGDA) were mixed under one hour of stirring with the amount of solid NaOH beads according to table 5. The mixture so obtained was stored at ambient temperature over the period of up to 96 hours. Then, the appearance was characterized by visual inspection.
# [3] = aqueous solution, room temperature; cited from earlier work
# [4] = NaOH added 0 g to 25 g of 40% by weight aqueous solution
# [5] = NaOH added 0.5 g to 25 g of 40% by weight aqueous solution
# [6] = NaOH added 1.0 g to 25 g of 40% by weight aqueous solution
# [7] = NaOH added 1.5 g to 25 g of 40% by weight aqueous solution, * = after 48 hours
# [8] = NaOH added 2.0 g to 25 g of 40% by weight aqueous solution, * = after 48 hours
# [9] = NaOH added 2.5 g to 25 g of 40% by weight aqueous solution, ** = immediately after addition of NaOH
SMILES,"Appearance of test solutions after 96 h of storage [2, 4]","Appearance of test solutions after 96 h of storage [2, 5]","Appearance of test solutions after 96 h of storage [2, 6]","Appearance of test solutions after 96 h of storage [2, 7]","Appearance of test solutions after 96 h of storage [2, 8]","Appearance of test solutions after 96 h of storage [2, 9]",other results
"CC(C(=O)[O-])N(CC(=O)[O-])CC(=O)[O-].[Na+].[Na+].[Na+] (racemic) [Racemic MGDA, methyl glycine diacetic acid (MGDA), reference compound]",clear liquid,clear liquid,clear liquid,turbid* liquid,turbid* liquid,"turbid, precipitate**",Tsol ([1]; listed as zero): 103.8 °C; concentration of solution that can be made and stored [3]: about 40 % by weight
"CC(C(=O)[O-])N(CC(=O)[O-])CC(=O)[O-].[Na+].[Na+].[Na+] (stereo not shown) [MGDA: 50% ee, methyl glycine diacetic acid (MGDA)]",clear liquid,clear liquid,clear liquid,clear liquid,clear liquid,clear liquid,Tsol ([1]; listed as 50.0): 68.1 °C
"CC(C(=O)[O-])N(CC(=O)[O-])CC(=O)[O-].[Na+].[Na+].[Na+] (stereo not shown) [ee value 10.1, methyl glycine diacetic acid (MGDA)]",–,–,–,–,–,–,Tsol ([1]; listed as 10.1): 74.5 °C
"CC(C(=O)[O-])N(CC(=O)[O-])CC(=O)[O-].[Na+].[Na+].[Na+] (stereo not shown) [ee value 20.0, methyl glycine diacetic acid (MGDA)]",–,–,–,–,–,–,Tsol ([1]; listed as 20.0): 74.0 °C
"CC(C(=O)[O-])N(CC(=O)[O-])CC(=O)[O-].[Na+].[Na+].[Na+] (stereo not shown) [ee value 70.0, methyl glycine diacetic acid (MGDA)]",–,–,–,–,–,–,Tsol ([1]; listed as 70.0): 59.5 °C
"CC(C(=O)[O-])N(CC(=O)[O-])CC(=O)[O-].[Na+].[Na+].[Na+] (stereo not shown) [ee value 97.7, methyl glycine diacetic acid (MGDA), reference compound]",–,–,–,–,–,–,Tsol ([1]; listed as 97.7): 37.0 °C
